Source: PubChem BioAssay (NCI)
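Each compound was tested at five concentrations against cells in 96-well plates for 48 hours. Definition used: TGI = concentration required for complete inhibition of growth.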

Experiments:
Test in all cases: DTP human tumour cell line panel, 48 h
[1] = system: MOLT-4 leukemia
[2] = system: HCT-116 colon
[3] = system: SNB-75 CNS
[4] = system: EKVX NSCLC
[5] = system: IGROV1 ovarian
[6] = system: ACHN renal
[7] = system: LOX IMVI melanoma
[8] = system: HCT-15 colon
[9] = system: CAKI-1 renal
[10] = system: SK-MEL-28 melanoma
[11] = system: OVCAR-5 ovarian
[12] = system: SF-295 CNS
[13] = system: OVCAR-4 ovarian
[14] = system: NCI-H522 lung
[15] = system: UACC-62 melanoma
[16] = system: SR leukemia
[17] = system: SN12C renal
[18] = system: NCI-H226 lung
[19] = system: NCI/ADR-RES ovarian

| SMILES | TGI [1] | TGI [2] | TGI [3] | TGI [4] | TGI [5] | TGI [6] | TGI [7] | TGI [8] | TGI [9] | TGI [10] | TGI [11] | TGI [12] | TGI [13] | TGI [14] | TGI [15] | TGI [16] | TGI [17] | TGI [18] | TGI [19] |
| --- | --- | --- | --- | --- | --- | --- | --- | --- | --- | --- | --- | --- | --- | --- | --- | --- | --- | --- | --- |
| Brc1cc2c(cc1C1SCCS1)OCO2 | > 100 µM | > 100 µM | > 100 µM | > 100 µM | > 100 µM | > 100 µM | > 100 µM | > 100 µM | > 100 µM | > 100 µM | > 100 µM | > 100 µM | > 100 µM | > 100 µM | > 100 µM | > 100 µM |  |  |  |
| Cc1nn(-c2nc3ccccc3s2)c2c1C(=O)c1ccccc1-2 |  | > 100 µM | > 100 µM | > 100 µM | > 100 µM | > 100 µM | > 100 µM | > 100 µM |  | > 100 µM | > 100 µM | > 100 µM | 64.1 µM | > 100 µM | > 100 µM | > 100 µM | > 100 µM |  |  |
| COc1c(C)cc2c(c1O)C1NC(C2)[C@H](O)N2C3COC(=O)[C@@]4(CS[C@@H](c5c(OC(C)=O)c(C)c6c(c53)OCO6)C12)NCCC1=C4NC2C=CC=CC12 (stereo not given in full) | < 0.01 µM |  | < 0.01 µM | 0.0306 µM | < 0.01 µM | 0.0148 µM | < 0.01 µM | 0.113 µM |  | < 0.01 µM |  | < 0.01 µM |  |  | < 0.01 µM |  | 0.0365 µM | < 0.01 µM |  |
| CCOP(=O)(OCC)C(C(=O)OC)C(=O)C(=O)Nc1c(C)cc(Br)cc1C (stereo not given) | > 100 µM | > 100 µM | > 100 µM | > 100 µM | > 100 µM | > 100 µM | > 100 µM | > 100 µM | > 100 µM | > 100 µM | > 100 µM |  | > 100 µM | > 100 µM | > 100 µM |  | > 100 µM | > 100 µM |  |
| COc1cc(/C=C\c2cccnc2)cc(OC)c1OC | 43.1 µM | > 100 µM | > 100 µM | > 100 µM | > 100 µM | > 100 µM | 71.3 µM | > 100 µM | > 100 µM | > 100 µM | > 100 µM | > 100 µM | > 100 µM | 96.3 µM | > 100 µM |  | > 100 µM | > 100 µM |  |
| CCCCCCCCCCCCCCCCOCC(CCl)OP(=O)(O)OP(=O)(O)OCC1OC(n2ccc(N)nc2=O)C(O)C1O (stereo not given) | > 100 µM | > 100 µM | 22 µM | > 100 µM | > 100 µM | > 100 µM | > 100 µM | > 100 µM | > 100 µM | > 100 µM | > 100 µM | > 100 µM | > 100 µM | > 100 µM | > 100 µM |  | > 100 µM | > 100 µM | > 100 µM |
| O=c1[nH]cnc2c1CCCN2 | > 100 µM | > 100 µM | > 100 µM | > 100 µM | > 100 µM | > 100 µM | > 100 µM | > 100 µM | > 100 µM | > 100 µM | > 100 µM | > 100 µM |  | > 100 µM | > 100 µM | > 100 µM | > 100 µM |  |  |
| CN(Cc1ccccc1)C(=NC#N)N(C)Cc1ccccc1 |  | > 100 µM |  | > 100 µM | > 100 µM | > 100 µM | > 100 µM | > 100 µM | > 100 µM | > 100 µM |  | > 100 µM | > 100 µM | > 100 µM | > 100 µM |  | > 100 µM |  |  |
| CC(C)N1CN(C(C(=O)N[C@@H]2C(=O)N3C2SC(C)(C)C3C(=O)O)c2ccc(O)cc2)CSC1=S (stereo not given in full) | > 100 µM | > 100 µM | > 100 µM | > 100 µM | > 100 µM | > 100 µM | > 100 µM | > 100 µM | > 100 µM | > 100 µM | > 100 µM | > 100 µM | > 100 µM | > 100 µM | > 100 µM |  | > 100 µM |  |  |
| CN1Cc2cc3c(cc2-c2ccccc21)OCO3 | > 100 µM | > 100 µM | > 100 µM | > 100 µM | > 100 µM | > 100 µM | > 100 µM |  |  | > 100 µM | > 100 µM | > 100 µM | > 100 µM | > 100 µM | > 100 µM | > 100 µM | > 100 µM |  |  |
| Clc1cc2n[se]nc2cc1Cl | > 100 µM | > 100 µM | > 100 µM | > 100 µM | > 100 µM | > 100 µM | > 100 µM | > 100 µM | > 100 µM | > 100 µM | > 100 µM | > 100 µM | > 100 µM |  | > 100 µM | > 100 µM | > 100 µM |  |  |
| CCOc1ccc(NC(=O)C2=C(C)NC(C)=C(C(=O)Nc3ccc(OCC)cc3)C2c2ccccc2)cc1 | > 100 µM |  | > 100 µM | > 100 µM | > 100 µM | > 100 µM | > 100 µM |  | > 100 µM | > 100 µM | > 100 µM | > 100 µM | > 100 µM | > 100 µM |  |  | > 100 µM | > 100 µM |  |
| O=C1C2CN(Cc3ccccc3)CC1CN(CC1CC1)C2 | > 100 µM |  | > 100 µM | > 100 µM | > 100 µM | > 100 µM | > 100 µM | > 100 µM | > 100 µM | > 100 µM | > 100 µM | > 100 µM | > 100 µM | > 100 µM | > 100 µM |  | > 100 µM | > 100 µM |  |
